Key:
[1] = target: T1, N-terminally His6-tagged recombinant kinase domain of the human c-Met (amino acids 960-1390) (Homo sapiens, UniProt P08581); experiment: c-Met receptor tyrosine kinase homogeneous time-resolved fluorescence assay (alternative format); type: biochemical; conditions: HTRF; ATP 10 μM, 30 min at 22° C.
T1 construct: kinase domain of the human c-Met (amino acids 960-1390); His6 (N); made in house; host or cells: insect cells (SF21)
From the text: c-Met Receptor Tyrosine Kinase Homogeneous Time-Resolved Fluorescence Assay (Alternative Format):
The N-terminally His6-tagged recombinant kinase domain of the human c-Met (amino acids 960-1390), expressed in insect cells (SF21) and purified by Ni-NTA affinity chromatography and consecutive size exclusion chromatography (Superdex 200), is used. Alternatively, commercially available c-Met (Millipore) can be used. As substrate for the kinase reaction, the biotinylated poly-Glu,Tyr (4:1) copolymer (#61GT0BLC, Cis Biointernational, Marcoule, France) is used.
For the assay, 50 nL of a 100-fold concentrated solution of the test compound in DMSO is pipetted into a black low-volume 384-well microtiter plate (Greiner Bio-One, Frickenhausen, Germany). 2 μL of a solution of c-Met in assay buffer [25 mM Hepes/NaOH, pH 7.5; 5 mM MgCl2; 5 mM MnCl2; 2 mM dithiothreitol; 0.1% (v/v) Tween 20 (Sigma); 0.1% (w/v) bovine serum albumin] are added, and the mixture is incubated for 15 min at 22° C. to allow pre-binding of the test compound to the enzyme before the start of the kinase reaction. Then, the kinase reaction is started by the addition of 3 μL of a solution of adenosine triphosphate (ATP, 16.7 μM; final concentration in the 5 μL assay volume is 10 μM) and substrate (2.27 μg/mL, final concentration in the 5 μL assay volume is 1.36 μg/mL˜30 nM) in assay buffer, and the resulting mixture is incubated for a reaction time of 30 min at 22° C. […]
The resulting mixture is incubated for 1 h at 22° C. to allow the binding of the biotinylated phosphorylated peptide to the streptavidine-XLent and the PT66-Eu-chelate. Subsequently, the amount of phosphorylated substrate is evaluated by measurement of the resonance energy transfer from the PT66-Eu-chelate to the streptavidine-XLent. Therefore, the fluorescence emissions at 620 nm and 665 nm after excitation at 350 nm are measured in an HTRF reader, e.g. Rubystar (BMG Lab-technologies, Offenburg, Germany) or Viewlux (Perkin-Elmer). […]

[2] = target: T2, Recombinant human c-Met protein (Homo sapiens, UniProt P08581); experiment: c-Met receptor tyrosine kinase activity assay (NADH read-out); type: biochemical; conditions: c-Met 30 nM, ATP 30 μM, 100 min at 32° C.
T2 construct: purchased Invitrogen
T2 sequence (P08581 25-1390): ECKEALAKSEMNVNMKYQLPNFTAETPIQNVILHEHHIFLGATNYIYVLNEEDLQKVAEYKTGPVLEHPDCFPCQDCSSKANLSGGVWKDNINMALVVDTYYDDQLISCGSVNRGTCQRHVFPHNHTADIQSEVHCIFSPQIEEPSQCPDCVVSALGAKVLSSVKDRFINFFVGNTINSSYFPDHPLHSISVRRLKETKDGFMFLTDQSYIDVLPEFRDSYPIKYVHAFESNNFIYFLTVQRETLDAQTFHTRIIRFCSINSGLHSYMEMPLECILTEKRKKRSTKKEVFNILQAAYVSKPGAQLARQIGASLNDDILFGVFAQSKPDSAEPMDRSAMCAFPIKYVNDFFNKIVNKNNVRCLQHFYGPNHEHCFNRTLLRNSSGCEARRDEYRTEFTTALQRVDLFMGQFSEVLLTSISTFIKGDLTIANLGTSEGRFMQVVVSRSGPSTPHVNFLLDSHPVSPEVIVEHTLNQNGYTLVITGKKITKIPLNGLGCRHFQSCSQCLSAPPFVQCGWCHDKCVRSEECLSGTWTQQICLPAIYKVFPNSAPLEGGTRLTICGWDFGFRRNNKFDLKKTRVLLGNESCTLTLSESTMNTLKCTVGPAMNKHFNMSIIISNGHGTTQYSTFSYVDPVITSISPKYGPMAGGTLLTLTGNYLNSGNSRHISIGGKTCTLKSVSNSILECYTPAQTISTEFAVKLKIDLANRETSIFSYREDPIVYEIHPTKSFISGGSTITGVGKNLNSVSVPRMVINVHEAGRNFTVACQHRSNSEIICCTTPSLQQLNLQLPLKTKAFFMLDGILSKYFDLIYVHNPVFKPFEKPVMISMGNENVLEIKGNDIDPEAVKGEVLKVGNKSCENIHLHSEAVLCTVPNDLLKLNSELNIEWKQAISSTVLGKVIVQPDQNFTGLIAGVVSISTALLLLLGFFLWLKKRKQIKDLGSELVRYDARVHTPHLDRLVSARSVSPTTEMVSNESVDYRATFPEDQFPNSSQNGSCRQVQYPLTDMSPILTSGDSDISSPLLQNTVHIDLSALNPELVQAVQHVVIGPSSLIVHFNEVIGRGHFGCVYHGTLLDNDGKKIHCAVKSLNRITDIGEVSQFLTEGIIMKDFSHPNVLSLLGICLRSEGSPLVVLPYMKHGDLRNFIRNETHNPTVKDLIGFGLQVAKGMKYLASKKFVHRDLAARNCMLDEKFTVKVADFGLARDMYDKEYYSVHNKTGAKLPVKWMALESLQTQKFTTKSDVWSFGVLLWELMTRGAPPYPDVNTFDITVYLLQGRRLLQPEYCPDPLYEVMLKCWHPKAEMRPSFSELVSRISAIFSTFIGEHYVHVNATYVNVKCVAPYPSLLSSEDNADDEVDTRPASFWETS
Description: c-Met Receptor Tyrosine Kinase Activity Assay (NADH Read-Out):
Recombinant human c-Met protein (Invitrogen, Carlsbad, Calif., USA) is used. As substrate for the kinase reaction the peptide KKKSPGEYVNIEFG (JPT, Germany) is used. For the assay, 1 μL of a 51-fold concentrated solution of the test compound in DMSO is pipetted into a white 384-well microtiter plate (Greiner Bio-One, Frickenhausen, Germany). 25 μL of a solution of c-Met (final concentration 30 nM) and pyruvate kinase/lactate dehydrogenase (Roche Diagnostics, Mannheim, Germany; final concentration 8 mg/L) in assay buffer [3-(N-morpholino)propane-sulfonic acid (MOPS), 50 mM, pH 7; MgCl2, 10 mM; bovine serum albumin (BSA), 0.01%; Triton X 100, 0.01%; DTT, 2 mM] are added, and the mixture is incubated for 5 min at room temperature. Then, the kinase reaction is started by the addition of 25 μL of a solution of adenosine triphosphate (ATP, final concentration 30 μM), substrate (final concentration 100 μM), nicotinamide adenine dinucleotide (NADH, final concentration 50 μM) and dithiothreitol (DTT, final concentration 2 mM) in assay buffer, and the resulting mixture is incubated for a reaction time of 100 min at 32° C.
Subsequently, the amount of phosphorylated substrate is evaluated by measurement of the decrease of NADH fluorescence. Therefore, the fluorescence emissions at 465 nm after excitation at 340 nm is measured in a fluorescence reader, e.g. Tecan Ultra (Tecan, Männedorf, Switzerland). The data are normalised (enzyme reaction without inhibitor=0% inhibition; all other assay components but no enzyme=100% inhibition).

T1 sequence (P08581 960-1390): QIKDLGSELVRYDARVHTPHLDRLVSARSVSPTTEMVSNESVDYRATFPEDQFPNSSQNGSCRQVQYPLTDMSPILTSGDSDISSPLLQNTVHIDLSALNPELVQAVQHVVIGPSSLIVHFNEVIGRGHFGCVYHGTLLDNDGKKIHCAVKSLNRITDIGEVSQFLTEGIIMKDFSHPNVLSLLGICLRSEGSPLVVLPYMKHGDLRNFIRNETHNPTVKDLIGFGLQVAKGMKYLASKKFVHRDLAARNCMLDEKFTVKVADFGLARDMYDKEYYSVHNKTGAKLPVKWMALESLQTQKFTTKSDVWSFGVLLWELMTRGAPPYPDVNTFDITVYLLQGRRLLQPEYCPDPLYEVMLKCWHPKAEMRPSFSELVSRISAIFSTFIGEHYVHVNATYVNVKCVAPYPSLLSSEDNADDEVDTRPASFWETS

| IC50 [1] [nM] | IC50 [2] [nM] | SMILES |
| --- | --- | --- |
| 23 | – | CCc1n[nH]c2ccc(C3C(C#N)=C(C)N4CCOCC4=C3C#N)cc12 (racemic) [Example 4, 8-(3-Ethyl-1H-indazol-5-yl)-6-methyl-1,3,4,8-tetrahydropyrido[2,1-c][1,4]oxazine-7,9-dicarbonitrile] |
| 1 | 8 | CC1=C(C#N)C(c2ccc3[nH]nc(C)c3c2)C(C#N)=C2COCCN12 (single isomer, unassigned) [Example 2, 6-Methyl-8-(3-methyl-1H-indazol-5-yl)-1,3,4,8-tetrahydropyrido[2,1-c][1,4]oxazine-7,9-dicarbonitrile] |
| – | 12 | CCc1n[nH]c2ccc(C3C(C#N)=C(C)N4CCOCC4=C3C#N)cc12 (single isomer, unassigned) [Example 5, 8-(3-Ethyl-1H-indazol-5-yl)-6-methyl-1,3,4,8-tetrahydropyrido[2,1-c][1,4]oxazine-7,9-dicarbonitrile] |
| – | 88 | CCc1n[nH]c2ccc(C3C(C#N)=C(C)N4CCOCC4=C3C#N)cc12 (single isomer, unassigned) [Example 6, 8-(3-Ethyl-1H-indazol-5-yl)-6-methyl-1,3,4,8-tetrahydropyrido[2,1-c][1,4]oxazine-7,9-dicarbonitrile] |
| 2 | 23 | CC1=C(C#N)C(c2ccc3[nH]nc(-c4ccc(F)nc4)c3c2)C(C#N)=C2COCCN12 (stereo not shown) [Example 7, 8-[3-(6-Fluoropyridin-3-yl)-1H-indazol-5-yl]-6-methyl-1,3,4,8-tetrahydropyrido[2,1-c][1,4]-oxazine-7,9-dicarbonitrile] |

Source: patent US8642595B2, “Annellated 4-(indazolyl)-1,4-dihydropyridine derivatives and methods of use thereof” (Bayer Intellectual Property GmbH, priority 2008, dated 2014)
